According to ChEMBL document CHEMBL1201862, “PubChem BioAssay data set” (2004):
Active and inactive are the calls of the source.

What was measured:
[1] = biological target: T1, Short transient receptor potential channel 4 (Mus musculus, UniProt Q9QUQ5); assay: TRPC4 inhibitor concentration-response, dose response, cell-based, HEK293 TRPC4/mu-opioid, DAMGO stimulus, Fluo-4 (AID 492994); assay type: functional
T1 sequence (Q9QUQ5 whole entry): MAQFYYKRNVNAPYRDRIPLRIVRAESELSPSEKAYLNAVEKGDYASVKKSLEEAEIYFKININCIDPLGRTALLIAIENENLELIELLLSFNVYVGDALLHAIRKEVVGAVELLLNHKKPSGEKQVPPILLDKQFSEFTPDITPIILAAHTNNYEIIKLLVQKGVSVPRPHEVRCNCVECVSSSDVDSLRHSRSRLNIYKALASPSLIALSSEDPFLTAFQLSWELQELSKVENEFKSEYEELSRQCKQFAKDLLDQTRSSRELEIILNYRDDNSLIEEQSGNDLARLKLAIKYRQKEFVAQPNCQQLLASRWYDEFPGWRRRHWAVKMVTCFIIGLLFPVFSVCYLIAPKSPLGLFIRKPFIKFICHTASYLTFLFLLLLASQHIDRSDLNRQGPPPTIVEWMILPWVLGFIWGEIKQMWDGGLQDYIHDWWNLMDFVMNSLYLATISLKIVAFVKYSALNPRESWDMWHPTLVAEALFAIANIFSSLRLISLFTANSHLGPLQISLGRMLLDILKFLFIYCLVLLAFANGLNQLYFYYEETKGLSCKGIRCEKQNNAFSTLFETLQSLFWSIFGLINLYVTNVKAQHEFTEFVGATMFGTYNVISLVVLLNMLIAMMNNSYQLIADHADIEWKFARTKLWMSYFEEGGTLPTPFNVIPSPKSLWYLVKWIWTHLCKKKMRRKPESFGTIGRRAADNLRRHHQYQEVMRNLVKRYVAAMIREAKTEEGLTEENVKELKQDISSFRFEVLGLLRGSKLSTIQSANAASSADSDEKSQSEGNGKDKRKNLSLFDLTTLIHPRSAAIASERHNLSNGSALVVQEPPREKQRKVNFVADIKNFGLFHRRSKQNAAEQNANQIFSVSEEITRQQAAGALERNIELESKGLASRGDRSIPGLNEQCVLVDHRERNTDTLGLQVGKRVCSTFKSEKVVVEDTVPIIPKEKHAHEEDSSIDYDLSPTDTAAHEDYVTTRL

[2] = biological target: T1, Short transient receptor potential channel 4; assay: SAR Analysis for the identification of selective inhibits of the transient receptor potential cation channel C4 (TRPC4): Automated Electrophysiology_2. [Related pubchem assays (depositor defined):AID2256]; assay type: functional
[3] = biological target: Short transient receptor potential channel 6 (Mus musculus, UniProt Q61143); assay: TRPC6 inhibition potency of TRPC4 inhibitor analogs, dose response, selectivity assay for selective TRPC4 inhibitor project, HEK293 cells, membrane potential dye, IC50 (AID 492987); assay type: functional, cell-based
Short transient receptor potential channel 6, sequence (Q61143 whole entry): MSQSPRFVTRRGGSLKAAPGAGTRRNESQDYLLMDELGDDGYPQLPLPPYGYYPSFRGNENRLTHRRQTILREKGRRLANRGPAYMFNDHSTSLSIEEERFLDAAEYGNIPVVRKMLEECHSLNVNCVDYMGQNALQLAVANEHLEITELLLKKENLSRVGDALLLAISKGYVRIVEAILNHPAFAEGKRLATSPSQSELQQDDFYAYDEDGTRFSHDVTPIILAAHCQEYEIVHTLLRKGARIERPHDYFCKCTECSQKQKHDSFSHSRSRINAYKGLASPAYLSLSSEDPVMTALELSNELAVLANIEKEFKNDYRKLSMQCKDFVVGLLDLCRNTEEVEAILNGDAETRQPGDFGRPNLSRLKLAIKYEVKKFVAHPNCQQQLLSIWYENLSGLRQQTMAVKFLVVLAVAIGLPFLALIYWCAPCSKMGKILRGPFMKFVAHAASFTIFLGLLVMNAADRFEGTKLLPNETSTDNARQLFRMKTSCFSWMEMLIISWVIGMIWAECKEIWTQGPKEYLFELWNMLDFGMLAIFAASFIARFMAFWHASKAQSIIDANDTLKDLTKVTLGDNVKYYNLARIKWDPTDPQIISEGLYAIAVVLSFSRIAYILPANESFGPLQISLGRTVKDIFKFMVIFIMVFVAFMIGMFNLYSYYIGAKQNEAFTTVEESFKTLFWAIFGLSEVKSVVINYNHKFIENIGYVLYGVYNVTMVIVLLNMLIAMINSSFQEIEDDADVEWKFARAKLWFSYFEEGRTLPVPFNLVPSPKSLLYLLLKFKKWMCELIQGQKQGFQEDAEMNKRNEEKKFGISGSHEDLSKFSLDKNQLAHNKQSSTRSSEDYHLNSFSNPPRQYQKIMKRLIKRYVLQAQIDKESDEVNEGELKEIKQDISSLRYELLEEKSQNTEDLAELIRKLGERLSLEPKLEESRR

[4] = cytotoxicity in HMLE control line with eGFP shRNA, dose response, counter-screen for HMLE_sh_ECad selective toxicity project, cell-based, HMLE_sh_eGFP, luminescence (AID 463074); assay type: functional, Homo sapiens;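 note: HMLE human mammary epithelial cells expressing control shRNA against eGFP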
[5] = Luminescence Cell-Based Dose Retest to Confirm Inhibitors of Cancer Stem Cells. [Related pubchem assays (depositor defined):AID2717, AID2721]; assay type: functional; conditions: Homo sapiens
[6] = biological target: Voltage-gated inwardly rectifying potassium channel KCNH2 (Homo sapiens, UniProt Q12809); conditions: Potency;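 note: confirmatory quantitative high-throughput screen measuring inhibition of hERG channel activity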
[7] = HepG2 cell cytotoxicity, dose response, cytotoxicity control for Shn3 inhibitor project, CellTiter-Glo, cherry-picked (AID 624134); assay type: functional, cell-based
[8] = tested on: Jurkat; assay: antigen receptor-induced NF-kB inhibitors, dose response, Jurkat, luciferase reporter, luminescence, B- and T-cell (AID 489004); assay type: functional, cell-based; conditions: Homo sapiens;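 note: NF-kB luciferase reporter Jurkat cells stimulated with PMA plus ionomycin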
[9] = biological target: T2, Type-1 angiotensin II receptor (Homo sapiens, UniProt P30556); assay: AT1 receptor antagonists, dose response, selectivity assay for APJ receptor antagonist project, cell-based, uHTS hits (AID 463214); assay type: functional;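 note: antagonist potency against angiotensin II stimulated AT1 response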
T2 sequence (P30556 whole entry): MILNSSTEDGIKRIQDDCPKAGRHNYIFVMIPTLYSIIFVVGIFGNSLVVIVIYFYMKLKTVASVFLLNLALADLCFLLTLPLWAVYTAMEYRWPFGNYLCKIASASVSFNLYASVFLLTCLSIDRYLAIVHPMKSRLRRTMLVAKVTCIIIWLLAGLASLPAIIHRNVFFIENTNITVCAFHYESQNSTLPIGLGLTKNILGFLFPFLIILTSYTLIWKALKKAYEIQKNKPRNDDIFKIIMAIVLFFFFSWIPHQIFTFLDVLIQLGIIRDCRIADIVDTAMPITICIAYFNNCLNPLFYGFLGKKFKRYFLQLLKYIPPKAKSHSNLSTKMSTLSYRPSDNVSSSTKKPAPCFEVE

[10] = biological target: Beta-galactosidase (Escherichia coli, UniProt Q8VNN2); assay: PubChem AID 485352; assay type: functional
Beta-galactosidase, sequence (Q8VNN2 whole entry): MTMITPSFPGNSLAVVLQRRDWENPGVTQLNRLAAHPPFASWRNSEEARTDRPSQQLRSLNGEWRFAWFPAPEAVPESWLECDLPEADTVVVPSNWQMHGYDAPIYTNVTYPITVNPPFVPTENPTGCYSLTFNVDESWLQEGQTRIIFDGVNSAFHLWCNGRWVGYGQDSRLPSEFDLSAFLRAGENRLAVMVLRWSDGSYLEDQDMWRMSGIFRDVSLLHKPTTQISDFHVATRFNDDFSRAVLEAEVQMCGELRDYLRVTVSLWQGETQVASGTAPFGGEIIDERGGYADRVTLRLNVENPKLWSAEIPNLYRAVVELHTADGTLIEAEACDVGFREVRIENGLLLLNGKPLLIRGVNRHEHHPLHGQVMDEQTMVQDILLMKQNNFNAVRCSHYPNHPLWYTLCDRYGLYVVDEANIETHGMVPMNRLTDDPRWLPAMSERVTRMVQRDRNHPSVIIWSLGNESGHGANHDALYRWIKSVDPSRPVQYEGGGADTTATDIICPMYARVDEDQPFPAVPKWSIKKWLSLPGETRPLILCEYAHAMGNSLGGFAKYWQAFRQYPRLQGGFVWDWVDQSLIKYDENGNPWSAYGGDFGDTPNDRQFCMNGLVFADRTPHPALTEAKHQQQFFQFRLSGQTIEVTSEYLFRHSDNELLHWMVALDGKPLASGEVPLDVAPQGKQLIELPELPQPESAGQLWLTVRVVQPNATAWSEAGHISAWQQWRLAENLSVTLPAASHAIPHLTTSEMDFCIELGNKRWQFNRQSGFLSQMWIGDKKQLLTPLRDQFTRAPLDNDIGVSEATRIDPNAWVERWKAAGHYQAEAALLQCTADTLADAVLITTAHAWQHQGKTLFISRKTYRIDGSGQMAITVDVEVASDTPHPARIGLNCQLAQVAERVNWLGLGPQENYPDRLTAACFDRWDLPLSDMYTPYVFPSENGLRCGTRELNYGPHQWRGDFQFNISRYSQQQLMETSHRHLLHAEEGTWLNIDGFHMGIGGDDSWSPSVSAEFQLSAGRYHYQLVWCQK

[11] = Shn3 3'UTR reporter inhibitors, dose response, cell-based, Clone20 osteoblasts, firefly luciferase, cherry-picked (AID 624132); assay type: functional;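 note: firefly luciferase luminescence from reporter carrying the Shn3 3'UTR in osteoblasts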
[12] = cytotoxicity in HEK-293T NF-kB-Luc cells, dose response, cytotoxicity control for B/T-cell NF-kB inhibitor project, cell-based, uHTS hits (AID 489019); assay type: functional;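 note: IC50 reflects cytotoxicity as loss of cell viability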
[13] = control 3'UTR Renilla luciferase suppression, dose response, counter-screen for Shn3 inhibitor project, cell-based, Clone20-Shn3RL, cherry-picked (AID 624133); assay type: functional
[14] = tested on: HEK293; assay: cytotoxicity in HEK293T NF-kB-Luc cells, SAR follow-up, cytotoxicity control for NF-kB activator project, cell-based, resazurin fluorescence (AID 493251); assay type: functional; conditions: Homo sapiens
[15] = tested on: HEK293; assay: SAR Analysis of small molecule inhibitors of T-cell specific antigen receptor-induced NF-kB activation in a HEK-293T cell line using a luminescence assay - Set 2. [Related pubchem assays (depositor defined):AID435003, AID435012, AID489026]; assay type: functional, cell-based; conditions: Homo sapiens
[16] = tested on: Jurkat; assay: SAR Analysis of small molecule inhibitors of T-cell specific antigen receptor-induced NF-kB activation in a Jurkat cell line using a luminescence assay - Set 2. [Related pubchem assays (depositor defined):AID435003, AID435012, AID465]; assay type: functional, cell-based; conditions: Homo sapiens
[17] = biological target: Hexokinase-1 (Homo sapiens, UniProt P19367); assay: SAR analysis of small molecule inhibitors of hexokinase domain containing I (HKDC1) in the hexokinase 1 selectivity assay. [Related pubchem assays (depositor defined):AID493160, AID493190]; assay type: functional
Hexokinase-1, sequence (P19367 whole entry, the tested form may be a part): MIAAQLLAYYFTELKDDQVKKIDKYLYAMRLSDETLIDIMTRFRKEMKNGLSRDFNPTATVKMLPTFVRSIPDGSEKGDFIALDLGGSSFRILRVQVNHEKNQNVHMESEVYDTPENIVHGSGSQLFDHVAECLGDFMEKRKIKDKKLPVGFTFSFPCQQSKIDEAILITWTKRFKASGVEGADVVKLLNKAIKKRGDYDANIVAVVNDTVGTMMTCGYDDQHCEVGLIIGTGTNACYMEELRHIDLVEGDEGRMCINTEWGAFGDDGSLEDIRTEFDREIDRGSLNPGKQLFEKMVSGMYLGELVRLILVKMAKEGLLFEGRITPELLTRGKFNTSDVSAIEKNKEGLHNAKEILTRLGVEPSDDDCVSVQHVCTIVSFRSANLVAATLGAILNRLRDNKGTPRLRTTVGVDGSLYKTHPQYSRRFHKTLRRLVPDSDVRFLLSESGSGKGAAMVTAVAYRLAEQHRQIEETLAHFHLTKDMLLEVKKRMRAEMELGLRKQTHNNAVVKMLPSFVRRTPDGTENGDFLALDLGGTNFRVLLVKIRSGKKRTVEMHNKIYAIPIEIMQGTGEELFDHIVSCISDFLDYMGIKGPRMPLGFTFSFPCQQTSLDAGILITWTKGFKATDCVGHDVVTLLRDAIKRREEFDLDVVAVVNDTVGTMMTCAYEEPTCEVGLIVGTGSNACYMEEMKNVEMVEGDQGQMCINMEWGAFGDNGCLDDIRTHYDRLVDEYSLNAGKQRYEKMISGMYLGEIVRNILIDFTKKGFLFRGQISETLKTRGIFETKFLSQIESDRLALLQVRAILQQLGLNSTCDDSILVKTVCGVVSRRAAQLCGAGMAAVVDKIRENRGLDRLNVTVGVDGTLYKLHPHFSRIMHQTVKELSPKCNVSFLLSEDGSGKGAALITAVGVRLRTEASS

[18] = biological target: T3, Hexokinase HKDC1 (Homo sapiens, UniProt Q2TB90); assay: SAR analysis of small molecule inhibitors of hexokinase domain containing I (HKDC1). [Related pubchem assays (depositor defined):AID493160, AID493190]; assay type: functional
T3 sequence (Q2TB90 whole entry): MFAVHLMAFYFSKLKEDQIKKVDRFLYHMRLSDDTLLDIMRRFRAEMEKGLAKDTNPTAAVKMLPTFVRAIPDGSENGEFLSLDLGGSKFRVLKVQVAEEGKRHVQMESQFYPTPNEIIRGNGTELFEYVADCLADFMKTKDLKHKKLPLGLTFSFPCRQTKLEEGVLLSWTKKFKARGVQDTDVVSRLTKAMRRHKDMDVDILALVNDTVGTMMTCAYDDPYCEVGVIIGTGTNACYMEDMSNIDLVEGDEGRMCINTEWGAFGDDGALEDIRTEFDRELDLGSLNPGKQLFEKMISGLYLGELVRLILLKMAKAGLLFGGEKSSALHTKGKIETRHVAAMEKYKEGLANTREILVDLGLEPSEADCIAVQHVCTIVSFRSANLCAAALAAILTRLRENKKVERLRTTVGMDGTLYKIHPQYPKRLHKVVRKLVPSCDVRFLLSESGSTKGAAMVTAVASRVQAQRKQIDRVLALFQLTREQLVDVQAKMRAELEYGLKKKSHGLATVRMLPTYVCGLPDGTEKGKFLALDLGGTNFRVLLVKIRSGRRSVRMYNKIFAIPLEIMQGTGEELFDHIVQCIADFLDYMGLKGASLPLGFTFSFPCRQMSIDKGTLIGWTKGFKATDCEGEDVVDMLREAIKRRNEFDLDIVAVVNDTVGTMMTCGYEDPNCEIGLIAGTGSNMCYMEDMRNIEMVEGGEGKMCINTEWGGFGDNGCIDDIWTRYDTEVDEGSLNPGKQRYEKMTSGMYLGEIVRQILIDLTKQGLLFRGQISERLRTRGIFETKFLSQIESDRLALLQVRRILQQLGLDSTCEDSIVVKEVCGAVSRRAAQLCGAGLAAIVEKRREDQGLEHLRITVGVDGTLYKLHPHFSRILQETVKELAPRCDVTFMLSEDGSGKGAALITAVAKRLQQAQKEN

[19] = biological target: DNA dC->dU-editing enzyme APOBEC-3G (Homo sapiens, UniProt Q9HC16); assay type: functional;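 note: Dose-response counterscreen measuring inhibition of APOBEC3G DNA deaminase activity, run while confirming APOBEC3A inhibitors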
DNA dC->dU-editing enzyme APOBEC-3G, sequence (Q9HC16 whole entry): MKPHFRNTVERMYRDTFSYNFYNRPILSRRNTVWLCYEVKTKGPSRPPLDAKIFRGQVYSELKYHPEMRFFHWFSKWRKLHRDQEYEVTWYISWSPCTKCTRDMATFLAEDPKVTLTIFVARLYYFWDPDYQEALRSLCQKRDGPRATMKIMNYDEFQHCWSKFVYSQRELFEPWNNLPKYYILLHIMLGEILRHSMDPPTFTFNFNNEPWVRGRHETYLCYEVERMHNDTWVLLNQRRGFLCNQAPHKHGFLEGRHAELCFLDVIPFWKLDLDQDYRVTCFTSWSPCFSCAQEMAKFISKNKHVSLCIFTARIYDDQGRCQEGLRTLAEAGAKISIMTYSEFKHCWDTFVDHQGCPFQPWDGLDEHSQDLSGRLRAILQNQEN

[20] = biological target: T4, Beta-adrenergic receptor kinase 1 (Homo sapiens, UniProt P25098); assay: GRK2 inhibitors displacing RNA aptamer, dose response, biochemical, flow cytometry beads, FAM-aptamer, powder set 1 (AID 588720)
T4 sequence (P25098 whole entry): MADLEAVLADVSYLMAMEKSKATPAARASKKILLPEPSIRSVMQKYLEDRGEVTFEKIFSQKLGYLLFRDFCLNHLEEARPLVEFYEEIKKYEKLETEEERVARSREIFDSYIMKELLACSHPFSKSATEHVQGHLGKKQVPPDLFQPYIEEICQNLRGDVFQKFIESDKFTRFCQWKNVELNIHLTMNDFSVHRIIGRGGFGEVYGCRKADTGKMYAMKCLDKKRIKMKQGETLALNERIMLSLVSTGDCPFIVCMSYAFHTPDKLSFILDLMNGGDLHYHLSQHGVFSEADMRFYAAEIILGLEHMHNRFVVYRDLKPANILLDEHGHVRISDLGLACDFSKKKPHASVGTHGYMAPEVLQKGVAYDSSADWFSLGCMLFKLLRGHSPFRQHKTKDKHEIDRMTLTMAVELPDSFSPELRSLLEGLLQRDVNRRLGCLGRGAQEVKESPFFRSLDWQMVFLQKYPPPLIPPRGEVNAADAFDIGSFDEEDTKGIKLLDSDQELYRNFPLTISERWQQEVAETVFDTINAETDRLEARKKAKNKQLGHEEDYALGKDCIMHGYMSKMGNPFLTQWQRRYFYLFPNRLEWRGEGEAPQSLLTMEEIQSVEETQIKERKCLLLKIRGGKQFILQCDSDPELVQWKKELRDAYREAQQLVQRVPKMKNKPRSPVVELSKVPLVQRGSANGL

[21] = biological target: T4, Beta-adrenergic receptor kinase 1; assay: aptamer displacement from bead-bound GRK2 – biochemical, cherry pick 1, bead flow cytometry, dose response (AID 504500)
[22] = biological target: Estrogen receptor beta (Homo sapiens, UniProt Q92731);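 note: recombinant ER-beta bound to coactivator SRC1 peptide in presence of estradiol agonist; inhibitors block coactivator peptide binding and lower the FRET signal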
Estrogen receptor beta, sequence (Q92731 whole entry): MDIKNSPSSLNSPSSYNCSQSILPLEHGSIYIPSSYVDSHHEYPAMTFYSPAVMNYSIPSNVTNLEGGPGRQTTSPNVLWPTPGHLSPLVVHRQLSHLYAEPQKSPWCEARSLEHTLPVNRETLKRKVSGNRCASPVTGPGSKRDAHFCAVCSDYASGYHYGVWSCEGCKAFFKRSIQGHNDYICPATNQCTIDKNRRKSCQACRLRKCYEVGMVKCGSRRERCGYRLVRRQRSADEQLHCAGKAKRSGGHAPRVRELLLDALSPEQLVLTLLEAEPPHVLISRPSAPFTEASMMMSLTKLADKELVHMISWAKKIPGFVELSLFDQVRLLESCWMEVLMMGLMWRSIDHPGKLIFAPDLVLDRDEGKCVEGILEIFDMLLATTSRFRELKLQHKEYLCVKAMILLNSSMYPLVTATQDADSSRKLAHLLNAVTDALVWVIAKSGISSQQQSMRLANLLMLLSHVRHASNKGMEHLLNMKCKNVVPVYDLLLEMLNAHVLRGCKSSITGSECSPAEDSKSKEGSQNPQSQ

[23] = biological target: DNA dC->dU-editing enzyme APOBEC-3A (Homo sapiens, UniProt P31941); assay: Dose Response confirmation of small molecule APOBEC3A DNA Deaminase Inhibitors via a fluorescence-based single-stranded DNA deaminase assay. [Related pubchem assays (depositor defined):AID493011, AID493024]; assay type: functional
DNA dC->dU-editing enzyme APOBEC-3A, sequence (P31941 whole entry): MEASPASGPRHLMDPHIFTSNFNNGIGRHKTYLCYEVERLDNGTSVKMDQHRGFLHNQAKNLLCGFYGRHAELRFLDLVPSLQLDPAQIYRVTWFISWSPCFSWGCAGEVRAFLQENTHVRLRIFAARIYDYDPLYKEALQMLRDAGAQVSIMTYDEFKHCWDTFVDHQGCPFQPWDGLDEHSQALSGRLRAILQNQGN

[24] = biological target: T5, Beta-2 adrenergic receptor (Homo sapiens, UniProt P07550); assay: Dose response for HTS for Beta-2AR agonists via FAP method from Powderset3.; assay type: functional
T5 sequence (P07550 whole entry): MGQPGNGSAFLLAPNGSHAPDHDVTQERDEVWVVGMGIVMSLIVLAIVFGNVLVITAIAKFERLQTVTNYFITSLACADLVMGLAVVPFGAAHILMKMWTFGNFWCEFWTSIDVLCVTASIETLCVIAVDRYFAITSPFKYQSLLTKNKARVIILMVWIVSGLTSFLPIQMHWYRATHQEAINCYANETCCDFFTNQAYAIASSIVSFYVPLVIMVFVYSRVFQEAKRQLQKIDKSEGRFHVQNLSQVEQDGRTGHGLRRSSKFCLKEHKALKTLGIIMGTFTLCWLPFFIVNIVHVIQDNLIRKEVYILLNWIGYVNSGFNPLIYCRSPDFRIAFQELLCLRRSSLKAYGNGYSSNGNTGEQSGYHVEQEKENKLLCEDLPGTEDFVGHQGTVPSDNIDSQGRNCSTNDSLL

[25] = biological target: T5, Beta-2 adrenergic receptor; assay: beta2AR agonists driving receptor internalization, dose response, cell-based, FAP fluorogen, flow cytometry, cherry pick 1 (AID 588763); assay type: functional

## Cc1cc(N2CCCC2)nc2c(C)cccc12
[1]
  IC50: 10.7 µM (active)
[2]
  IC50: 9.96 µM (active)
[3]
  IC50: 9.8 µM (active)

## Cc1ccc(Nc2nc(N)nc(CSC(=S)N3CCN(c4ccccc4)CC3)n2)cc1
[4]
  AC50: 31.4 µM (active)
[5]
  AC50: 13.4 µM (active)

## COc1cc([C@@H]2c3cc4c(cc3[C@H](O)C3COC(=O)[C@@H]32)OCO4)cc(OC)c1OC (stereo not given in full)
[6]
  AC50: 0.501 µM (inconclusive)

## O=C1/C(=C/c2ccccc2)C[C@@]2(O)[C@H]3Cc4ccc(O)c5c4[C@@]2(CCN3CC2CC2)C1O5 (stereo not given in full)
[7]
  AC50: 8.88 µM (active)
[8]
  IC50: 4.22 µM (active)
[9]
  IC50: 14 µM (active)
[10]
  EC50: > 40 µM (inactive)
[11]
  AC50: 4.64 µM (active)
[12]
  IC50: > 80 µM (inactive)
[13]
  AC50: 7.78 µM (active)

## COc1ccc(C(=O)Nc2ccc(NC(=O)c3cc4ccccc4o3)cc2)cc1Br
[14]
  IC50: > 80 µM (inactive)
[15]
  IC50: > 80 µM (inactive)
[16]
  IC50: > 79 µM (inactive)

## O=c1c2ccccc2nc(/C=C/c2ccccc2Cl)n1Cc1ccccc1
[17]
  IC50: > 80 µM (inactive)
[18]
  IC50: > 80 µM (inactive)

## Cc1cc(=O)[nH]c(SCC(=O)NCc2ccco2)n1
[19]
  IC50: 43.4 µM (active)
[20]
  EC50: 44.9 µM (active)
[21]
  EC50: 22.1 µM (inactive)
[22]
  IC50: 6.27 µM (active)
[23]
  IC50: 17.4 µM (active)

## C=CCn1c(CCNC(=O)c2cccs2)nnc1SCC(=O)c1ccc(Br)cc1
[24]
  EC50: 0.00548 µM (active)
[25]
  EC50: 0.214 µM (active)
